In US8680052B1, “Methods of treating, reducing the incidence of, and/or preventing ischemic events” (The Medicines Company, priority 2013, dated 2014):

Experiments:
Assay type in all cases: in vivo, human
[1] = system: patients with acute coronary syndromes undergoing PCI; test: Example 2: bleeding (GUSTO, TIMI, ACUITY) and adverse events up to 48 hours
From the text: Multiple definitions of bleeding were used for full disclosure of bleeding risks associated with cangrelor: […] N Engl J Med 329:673-82 (1993); mild, moderate, or severe/life-threatening based on transfusion use and presence/absence of hemodynamic compromise); […] Investigators reported adverse and serious adverse events according to International Conference on Harmonization guidance (International Conference on Harmonization (ICH) Guidance Documents. U.S. Food and Drug Administration Web site. (Accessed on Oct. 8, 2009, at the FDA website beginning with “www.” and ending with “fda.gov/RegulatoryInformation/Guidances/ucm122049.htm”)).

platelets = test: Example 4: platelet activation measured by flow cytometry; settings: P-selectin expression, 1 μM ADP
Description: (§1) The study involved 12 patients who met the criteria of being 18-75 years of age, having coronary artery disease (CAD) documented by a previous MI or coronary revascularization, and taking 81 mg of aspirin daily. […] Prohibited concomitant medications included strong and potent CYP3A inhibitors, simvastatin and lovastatin at doses more than 40 mg/day, omeprazole or esomeprazole, and digoxin. Use of non-steroidal anti-inflammatory agents was discouraged during study participation but not prohibited.
(§2) Each patient was administered a 30 μg/kg bolus of cangrelor followed immediately by a 2 hr infusion at a rate of 4.0 μg/kg/min. A loading dose of ticagrelor (180 mg) was given after 0.5 hr or 1.25 hr (n=6 for each). Blood for pharmacodynamic platelet function studies was taken after 0.5 or 1.25 hr (corresponding to the time of ticagrelor load, n=6 for each), and then at 1.75, 2, 2.25, 2.5, 2.75, 3, 4, and 5.25 hr. Patients were assigned randomly to receive either 6 (n=6) or 7 (n=6) doses of ticagrelor to be taken every 12 hours following the discontinuation of the infusion of cangrelor. On study day 5, each patient was administered a 30 μg/kg bolus of cangrelor followed immediately by a 2 hr infusion at a rate of 4.0 μg/kg/min. Blood for pharmacodynamic assessment was taken after 1 and 2 hr. Adverse events were queried throughout study participation that ended with a telephone interview performed on study day 10-12.
(§3) Pharmacodynamic assessment included light transmission aggregometry (LTA), VerifyNow® P2Y12 assay, vasodilator-stimulated phosphoprotein (VASP) index, and platelet activation measured with the use of flow cytometry. Assessment of LTA, VerifyNow®, and platelet activation with the use of flow cytometry was performed within 30 min of blood being taken. In the case of flow cytometry, samples were processed to fixation and then batched for analysis. For VASP, index samples were batched and processed as recommended by the vendor within 2 h of blood being taken. This approach limited the time from fixation of VASP index to flow analysis to less than 1 h.
(§4) LTA induced by 5 μM and 20 μM adenosine diphosphate (ADP) was quantified ex vivo (i.e. in non-adjusted platelet rich plasma). Platelet-poor plasma was set as 100% aggregation, and both maximal (peak) and terminal (at 300 s) aggregation were measured with a PAP4 aggregometer (BioData, Horsham, Pa.). VerifyNow® P2Y12 assay (Accumetrics Inc, San Diego, Calif.) that measures the effects of drugs on the P2Y12 receptor by activating platelets with prostaglandin El in addition to ADP was used in accordance with the instructions provided by the manufacturer. Platelet reactivity was expressed in P2Y12 reaction units (PRU). Activation of platelets was identified with the use of flow cytometry as previously described.^17. And to determine the VASP index, a commercially available kit (Diagnostica Stago, Inc, Parsippany NJ) was used. ^17 Schneider D J, Sobel B E. Streamlining the design of promising clinical trials: in-vitro testing of antithrombotic regimens and multiple agonists of platelet activation. Coron Artery Dis. 2009; 20:175-8.

[2] = system: vasodilator-stimulated phosphoprotein (VASP); test: Example 4: vasodilator-stimulated phosphoprotein (VASP) index
Description: as §1, §2, §3, §4

[3] = reference 5.25 h, Ticagrelor at 0.5 h
[4] = reference 5.25 h, Ticagrelor at 1.25 h

**Q.** `COC(=O)[C@H](c1ccccc1Cl)N1CCc2sccc2C1` [Clopidogrel, clopidogrel, reference compound] was tested. Which “ACUITY criteria Major bleeding” value ([1]; 48-hour, safety population) did it give?
**A.** Its value is 126 (2.9) no. (%).

**Q.** And the “ACUITY criteria Minor bleeding” value ([1]; 48-hour, safety population)?
**A.** Its value is 663 (15.2) no. (%).

**Q.** And the “Access site bleeding requiring radiologic or surgical intervention” value ([1]; 48-hour, safety population)?
**A.** The value was 10 (0.2) no. (%).

**Q.** What about the Any blood transfusion ([1]; 48-hour, safety population) of the same compound?
**A.** The Any blood transfusion was 42 (1.0) no. (%).

**Q.** What about the Any platelet transfusion ([1]; 48-hour, safety population) of the same compound?
**A.** Its Any platelet transfusion is 5 (0.1) no. (%).

**Q.** What about the “Drop in hemoglobin and/or hematocrit” value ([1]; 48-hour, safety population) of the same compound?
**A.** Its value is 63 (1.4) no. (%).

**Q.** What about the Ecchymosis ([1]; 48-hour, safety population) of the same compound?
**A.** Its Ecchymosis is 234 (5.4) no. (%).

**Q.** What about the Epistaxis ([1]; 48-hour, safety population) of the same compound?
**A.** Its Epistaxis is 22 (0.5) no. (%).

**Q.** What about the “GUSTO criteria Mild bleeding” value ([1]; 48-hour, safety population) of the same compound?
**A.** Its value is 739 (16.9) no. (%).

**Q.** What about the “GUSTO criteria Moderate bleeding” value ([1]; 48-hour, safety population) of the same compound?
**A.** The value was 34 (0.8) no. (%).

**Q.** And the “GUSTO criteria Severe/life-threatening bleeding” value ([1]; 48-hour, safety population)?
**A.** Its value is 11 (0.3) no. (%).

**Q.** And the “Hematoma <5 cm at puncture site” value ([1]; 48-hour, safety population)?
**A.** Its value is 222 (5.1) no. (%).

**Q.** What about the “Hematoma ≧5 cm at puncture site” value ([1]; 48-hour, safety population) of the same compound?
**A.** Its value is 76 (1.7) no. (%).

**Q.** What about the Hemodynamic compromise ([1]; 48-hour, safety population) of the same compound?
**A.** The Hemodynamic compromise was 11 (0.3) no. (%).

**Q.** And the Intracranial hemorrhage ([1]; 48-hour, safety population)?
**A.** Its Intracranial hemorrhage is 0 (0.0) no. (%).

**Q.** And the Intraocular ([1]; 48-hour, safety population)?
**A.** The Intraocular was 0 (0.0) no. (%).

**Q.** And the “Oozing at puncture site” value ([1]; 48-hour, safety population)?
**A.** Its value is 319 (7.3) no. (%).

**Q.** And the Reoperation for bleeding ([1]; 48-hour, safety population)?
**A.** The Reoperation for bleeding was 1 (0.0) no. (%).

**Q.** And the Retroperitoneal ([1]; 48-hour, safety population)?
**A.** The Retroperitoneal was 10 (0.2) no. (%).

**Q.** What about the “TIMI criteria Major bleeding” value ([1]; 48-hour, safety population) of the same compound?
**A.** Its value is 14 (0.3) no. (%).

**Q.** What about the “TIMI criteria Minor bleeding” value ([1]; 48-hour, safety population) of the same compound?
**A.** The value was 26 (0.6) no. (%).

**Q.** What about the Thrombocytopenia ([1]; 48-hour, safety population) of the same compound?
**A.** The Thrombocytopenia was 7 (0.2) no. (%).

**Q.** And the Dyspnea ([1]; human, in vivo, 48 h)?
**A.** Its Dyspnea is 0.4%.

**Q.** What about the Serious adverse events ([1]; human, in vivo, 48 h) of the same compound?
**A.** Its Serious adverse events is 2.7%.

**Q.** What about the “discontinuation of study drug due to an adverse event” value ([1]; human, in vivo, 48 h) of the same compound?
**A.** The value was 0.5%.

**Q.** What about the Reported adverse events ([1]; safety population) of the same compound?
**A.** The Reported adverse events was 25.7%.

**Q.** Which results are given for `CCCSc1nc(N[C@@H]2C[C@H]2c2ccc(F)c(F)c2)c2nnn([C@@H]3C[C@H](OCCO)[C@@H](O)[C@H]3O)c2n1` [ticagrelor]?
**A.** Flow Cytometry IPR (platelets; 2.25 h, All): 84 ± 8; Flow Cytometry PR (platelets; 2.25 h, All): 7.8 ± 3.7; Flow Cytometry IPR (platelets; 2.25 h, Ticagrelor at 0.5 h): 86 ± 8; Flow Cytometry PR (platelets; 2.25 h, Ticagrelor at 0.5 h): 7.5 ± 2.4; Flow Cytometry IPR (platelets; 2.25 h, Ticagrelor at 1.25 h): 83 ± 9; Flow Cytometry PR (platelets; 2.25 h, Ticagrelor at 1.25 h): 8 ± 4.9; Flow Cytometry IPR (platelets; 2.5 h, All): 67 ± 29; Flow Cytometry PR (platelets; 2.5 h, All): 14 ± 8.6; Flow Cytometry IPR (platelets; 2.5 h, Ticagrelor at 0.5 h): 81 ± 17; Flow Cytometry PR (platelets; 2.5 h, Ticagrelor at 0.5 h): 9.2 ± 5.9; Flow Cytometry IPR (platelets; 2.5 h, Ticagrelor at 1.25 h): 53 ± 34; Flow Cytometry PR (platelets; 2.5 h, Ticagrelor at 1.25 h): 19 ± 8.5; Flow Cytometry IPR (platelets; 2.75 h, All): 80 ± 17; Flow Cytometry PR (platelets; 2.75 h, All): 8.8 ± 5.6; Flow Cytometry IPR (platelets; 2.75 h, Ticagrelor at 0.5 h): 82 ± 13; Flow Cytometry PR (platelets; 2.75 h, Ticagrelor at 0.5 h): 9.3 ± 4.7; Flow Cytometry IPR (platelets; 2.75 h, Ticagrelor at 1.25 h): 79 ± 22; Flow Cytometry PR (platelets; 2.75 h, Ticagrelor at 1.25 h): 8.3 ± 6.9; Flow Cytometry IPR (platelets; 3 h, All): 86 ± 13; Flow Cytometry PR (platelets; 3 h, All): 6.5 ± 4.1; Flow Cytometry IPR (platelets; 3 h, Ticagrelor at 0.5 h): 87 ± 10; Flow Cytometry PR (platelets; 3 h, Ticagrelor at 0.5 h): 6.8 ± 2.9; Flow Cytometry IPR (platelets; 3 h, Ticagrelor at 1.25 h): 86 ± 16; Flow Cytometry PR (platelets; 3 h, Ticagrelor at 1.25 h): 6.2 ± 5.3; Flow Cytometry IPR (platelets; 4 h, All): 84 ± 15; Flow Cytometry PR (platelets; 4 h, All): 7.5 ± 6.2; Flow Cytometry IPR (platelets; 4 h, Ticagrelor at 0.5 h): 90 ± 4; Flow Cytometry PR (platelets; 4 h, Ticagrelor at 0.5 h): 5.5 ± 2.4; Flow Cytometry IPR (platelets; 4 h, Ticagrelor at 1.25 h): 78 ± 20; Flow Cytometry PR (platelets; 4 h, Ticagrelor at 1.25 h): 9.5 ± 8.2; Flow Cytometry IPR (platelets; reference 5.25 h, All): 91 ± 6; Flow Cytometry PR (platelets; reference 5.25 h, All): 5 ± 3.6; Flow Cytometry IPR (platelets; [3]): 91 ± 4; Flow Cytometry PR (platelets; [3]): 5.5 ± 3.9; Flow Cytometry IPR (platelets; [4]): 91 ± 7; Flow Cytometry PR (platelets; [4]): 4.5 ± 2; VASP Index VI ([2]; 2.25 h, All): 35 ± 10; VASP Index VI ([2]; 2.25 h, Ticagrelor at 0.5 h): 37 ± 8; VASP Index VI ([2]; 2.25 h, Ticagrelor at 1.25 h): 32 ± 11; VASP Index VI ([2]; 2.5 h, All): 48 ± 49; VASP Index VI ([2]; 2.5 h, Ticagrelor at 0.5 h): 41 ± 25; VASP Index VI ([2]; 2.5 h, Ticagrelor at 1.25 h): 54 ± 32; VASP Index VI ([2]; 2.75 h, All): 22 ± 16; VASP Index VI ([2]; 2.75 h, Ticagrelor at 0.5 h): 21 ± 13; VASP Index VI ([2]; 2.75 h, Ticagrelor at 1.25 h): 22 ± 20; VASP Index VI ([2]; 3 h, All): 25 ± 19; VASP Index VI ([2]; 3 h, Ticagrelor at 0.5 h): 24 ± 19; VASP Index VI ([2]; 3 h, Ticagrelor at 1.25 h): 26 ± 20; VASP Index VI ([2]; 4 h, All): 17 ± 14; VASP Index VI ([2]; 4 h, Ticagrelor at 0.5 h): 16 ± 14; VASP Index VI ([2]; 4 h, Ticagrelor at 1.25 h): 19 ± 16; VASP Index VI ([2]; reference 5.25 h, All): 12 ± 12; VASP Index VI [2, 3]: 11 ± 10; VASP Index VI [2, 4]: 14 ± 15
